The values that follow come from patent publication US10239873B2, “7-azaindole or 4,7-diazaindole derivatives as IKKϵ epsilon and TBK1 inhibitor and pharmaceutical composition comprising same” (GREEN CROSS CORPORATION, priority 2015, dated 2019).

pIC50: −log10 of the molar value.

For one assay, the target named is T1, IKKε (Homo sapiens, UniProt Q14164).
T1 construct: purchased Promega and/or Invitrogen V4158; PR8031B; V3991 (not assigned to the two kinases)
T1 sequence (Q14164 1-716): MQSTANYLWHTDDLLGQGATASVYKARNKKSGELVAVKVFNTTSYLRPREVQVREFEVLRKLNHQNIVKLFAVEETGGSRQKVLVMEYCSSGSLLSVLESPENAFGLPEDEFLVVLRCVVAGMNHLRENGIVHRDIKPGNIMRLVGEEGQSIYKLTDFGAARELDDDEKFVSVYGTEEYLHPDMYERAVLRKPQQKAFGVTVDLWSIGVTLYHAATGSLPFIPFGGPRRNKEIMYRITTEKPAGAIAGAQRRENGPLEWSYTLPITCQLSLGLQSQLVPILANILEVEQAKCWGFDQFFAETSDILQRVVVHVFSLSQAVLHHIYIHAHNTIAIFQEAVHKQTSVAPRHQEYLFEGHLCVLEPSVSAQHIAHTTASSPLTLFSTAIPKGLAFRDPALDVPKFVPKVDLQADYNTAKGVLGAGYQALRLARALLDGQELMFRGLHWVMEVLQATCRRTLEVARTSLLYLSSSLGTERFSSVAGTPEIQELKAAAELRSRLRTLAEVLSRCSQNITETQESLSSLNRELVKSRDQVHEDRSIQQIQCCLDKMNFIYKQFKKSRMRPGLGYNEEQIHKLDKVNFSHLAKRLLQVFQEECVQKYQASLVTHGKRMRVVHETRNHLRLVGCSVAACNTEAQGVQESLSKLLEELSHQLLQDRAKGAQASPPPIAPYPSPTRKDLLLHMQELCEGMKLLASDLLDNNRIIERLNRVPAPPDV
As to the kind of experiment: ADP-Glo Kinase Assay, inhibition activity on IKKε. In kind it is biochemical. The method, boiled down:
(§1)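 In 40 mM Tris pH 7.5 with 20 mM MgCl2 and 0.1 mg/mL BSA, each enzyme (IKKε or TBK1 kinase system) was run according to the manufacturer's protocol. ADP formed was detected by ADP-Glo luminescence.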
For orientation: ADP-Glo first removes unused ATP, then detects ADP through luciferase.

In another assay the target is T2, TBK1 (Homo sapiens, UniProt Q9UHD2).
T2 construct: purchased Promega (Invitrogen is also named in the same bracket) V4158; PR8031B; V3991 (not assigned to the two kinases)
T2 sequence (Q9UHD2 1-729): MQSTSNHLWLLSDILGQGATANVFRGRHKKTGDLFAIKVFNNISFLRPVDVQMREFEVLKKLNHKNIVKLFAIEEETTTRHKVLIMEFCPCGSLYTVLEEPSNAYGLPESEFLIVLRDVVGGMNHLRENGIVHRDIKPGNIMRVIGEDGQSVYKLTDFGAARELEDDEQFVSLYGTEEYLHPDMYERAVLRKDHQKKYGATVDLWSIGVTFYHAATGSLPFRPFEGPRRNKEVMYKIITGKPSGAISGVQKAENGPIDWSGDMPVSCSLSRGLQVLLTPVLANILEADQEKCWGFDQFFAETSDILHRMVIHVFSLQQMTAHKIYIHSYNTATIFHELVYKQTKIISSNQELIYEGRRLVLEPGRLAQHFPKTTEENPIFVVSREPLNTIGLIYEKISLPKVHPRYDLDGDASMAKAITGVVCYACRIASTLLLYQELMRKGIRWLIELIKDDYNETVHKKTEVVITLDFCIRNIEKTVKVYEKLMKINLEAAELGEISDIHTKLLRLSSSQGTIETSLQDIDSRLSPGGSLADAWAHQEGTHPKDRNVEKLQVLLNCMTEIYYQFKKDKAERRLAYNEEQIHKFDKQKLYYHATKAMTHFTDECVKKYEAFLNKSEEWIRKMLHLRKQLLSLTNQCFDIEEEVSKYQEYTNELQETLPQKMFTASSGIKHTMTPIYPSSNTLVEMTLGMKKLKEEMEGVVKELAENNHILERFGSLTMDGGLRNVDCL
The assay is described as follows: ADP-Glo Kinase Assay, inhibition activity on TBK1. In kind it is biochemical. In outline:
as §1

For orientation: pIC50 means −log10 of the IC50, conventionally taken in molar units. Take `CC1C=C(c2c[nH]c3ncc(-c4ccc(C(=O)N5CCN(C)CC5)cc4)cc23)CCN1C(=O)NC1CCC1` (centres unmarked) [Example 98, N-cyclobutyl-2-methyl-4-(5-(4-(4-methylpiperazine-1-carbonyl)phenyl)-1H-pyrrolo[2,3-b]pyridin-3-yl)-5,6-dihydropyridine-1(2H)-carboxamide]: the values for the pIC50 on IKKε and against TBK1 were 7.66 and 7.82, respectively.

As to `CC1C=C(c2c[nH]c3ncc(-c4ccc(CN5CCN(C)CC5)cc4)cc23)CCN1C(=O)NC1CCC1` (centres unmarked) [Example 99, N-cyclobutyl-2-methyl-4-(5-(4-((4-methylpiperazin-1-yl)methyl)phenyl)-1H-pyrrolo[2,3-b]pyridin-3-yl)-5,6-dihydropyridine-1(2H)-carboxamide], the values for the negative logarithm of the IC50 (pIC50) on IKKε and against TBK1 were 7.19 and 7.55, respectively.

As to `CC1C=C(c2c[nH]c3ncc(-c4ccc(CN5CCN(C)CC5)s4)cc23)CCN1C(=O)NC1CCC1` (centres unmarked) [Example 100, N-cyclobutyl-2-methyl-4-(5-(5-((4-methylpiperazin-1-yl)methyl)thiophen-2-yl)-1H-pyrrolo[2,3-b]pyridin-3-yl)-5,6-dihydropyridine-1(2H)-carboxamide], the pIC50 was 7.46 on IKKε and 8.25 against TBK1.

Turning to `CC1C=C(c2c[nH]c3ncc(-c4ccc(CN5CCOCC5)s4)cc23)CCN1C(=O)NC1CCC1` (centres unmarked) [Example 101, N-cyclobutyl-2-methyl-4-(5-(5-(morpholinomethyl)thiophen-2-yl)-1H-pyrrolo[2,3-b]pyridin-3-yl)-5,6-dihydropyridine-1(2H)-carboxamide], the figures for the negative logarithm of the IC50 (pIC50) at IKKε and at TBK1 were 7.54 and 8.00, respectively.

On to `CC1C=C(c2c[nH]c3ncc(-c4ccc(CN5CCN(C)CC5)s4)cc23)CCN1C(=O)NC1CCCC1` (centres unmarked) [Example 102, N-cyclopentyl-2-methyl-4-(5-(5-((4-methylpiperazin-1-yl)methyl)thiophen-2-yl)-1H-pyrrolo[2,3-b]pyridin-3-yl)-5,6-dihydropyridine-1(2H)-carboxamide], for which the negative logarithm of the IC50 (pIC50) at IKKε was 7.89; on TBK1 it was 8.36.

Regarding `CC1CC(c2c[nH]c3ncc(-c4ccc(CN5CCN(C)CC5)s4)cc23)=CCN1C(=O)NC1CCCC1` (centres unmarked) [Example 103, N-cyclopentyl-6-methyl-4-(5-(5-((4-methylpiperazin-1-yl)methyl)thiophen-2-yl)-1H-pyrrolo[2,3-b]pyridin-3-yl)-5,6-dihydropyridine-1(2H)-carboxamide], the negative-log IC50 (pIC50) against IKKε is 6.82; on TBK1 it was 7.24.

Take `CC1CC(c2c[nH]c3ncc(-c4ccc(CN5CCOCC5)s4)cc23)=CCN1C(=O)NC1CCCC1` (centres unmarked) [Example 104, N-cyclopentyl-6-methyl-4-(5-(5-(morpholinomethyl)thiophen-2-yl)-1H-pyrrolo[2,3-b]pyridin-3-yl)-5,6-dihydropyridine-1(2H)-carboxamide]: the negative-log IC50 (pIC50) on IKKε was 6.72; against TBK1, 6.96.

Turning to `CC1C=C(c2c[nH]c3ncc(-c4ccc(S(C)(=O)=O)cc4)cc23)CCN1C(=O)NC1CCCC1` (centres unmarked) [Example 105, N-cyclopentyl-2-methyl-4-(5-(4-(methylsulfonyl)phenyl)-1H-pyrrolo[2,3-b]pyridin-3-yl)-5,6-dihydropyridine-1(2H)-carboxamide], the pIC50 against IKKε was 7.66; on TBK1 it was 7.60.

As to `CC1C=C(c2c[nH]c3ncc(-c4ccc(CN5CCOCC5)s4)cc23)CCN1C(=O)NC1CCCC1` (centres unmarked) [Example 106, N-cyclopentyl-2-methyl-4-(5-(5-(morpholinomethyl)thiophen-2-yl)-1H-pyrrolo[2,3-b]pyridin-3-yl)-5,6-dihydropyridine-1(2H)-carboxamide], the pIC50 at IKKε is 8.33; against TBK1, 8.51.

Consider `COc1ccc(-c2cnc3[nH]cc(C4=CC(C)N(C(=O)NC5CCCC5)CC4)c3c2)cc1OC` (centres unmarked) [Example 108, N-cyclopentyl-4-(5-(3,4-dimethoxyphenyl)-1H-pyrrolo[2,3-b]pyridin-3-yl)-2-methyl-5,6-dihydropyridine-1(2H)-carboxamide], for which the values for the pIC50 at IKKε and on TBK1 were 7.54 and 7.64, respectively.

`CCC1C=C(c2c[nH]c3ncc(-c4ccc(CN5CCOCC5)s4)cc23)CCN1C(=O)NC(C)C` (centres unmarked) [Example 109, 2-Ethyl-N-isopropyl-4-(5-(5-(morpholinomethyl)thiophen-2-yl)-1H-pyrrolo[2,3-b]pyridin-3-yl)-5,6-dihydropyridine-1(2H)-carboxamide]: the negative-log IC50 (pIC50) is 6.41 against IKKε and 6.66 at TBK1.

`CCC1CC(c2c[nH]c3ncc(-c4ccc(CN5CCOCC5)s4)cc23)=CCN1C(=O)NC(C)C` (centres unmarked) [Example 110, 6-Ethyl-N-isopropyl-4-(5-(5-(morpholinomethyl)thiophen-2-yl)-1H-pyrrolo[2,3-b]pyridin-3-yl)-5,6-dihydropyridine-1(2H)-carboxamide]: the values for the pIC50 at IKKε and against TBK1 were 7.37 and 7.51, respectively.

On to `CCC1C=C(c2c[nH]c3ncc(-c4ccc(CN5CCN(C)CC5)s4)cc23)CCN1C(=O)NC(C)C` (centres unmarked) [Example 111, 2-Ethyl-N-isopropyl-4-(5-(5-((4-methylpiperazin-1-yl)methyl)thiophen-2-yl)-1H-pyrrolo[2,3-b]pyridin-3-yl)-5,6-dihydropyridine-1(2H)-carboxamide], for which the negative-log IC50 (pIC50) against IKKε is 7.11; on TBK1 it was 7.74.

Turning to `CCC1C=C(c2c[nH]c3ncc(-c4ccc(CN5CCOCC5)cc4)cc23)CCN1C(=O)NC(C)C` (centres unmarked) [Example 112, 6-Ethyl-N-isopropyl-4-(5-(4-(morpholinomethyl)phenyl)-1H-pyrrolo[2,3-b]pyridin-3-yl)-3,6-dihydropyridine-1(2H)-carboxamide], the pIC50 on IKKε is 7.21; against TBK1, 7.25.

For the compound `CCC1C=C(c2c[nH]c3ncc(-c4ccc(C(=O)N5CCN(C)CC5)cc4)cc23)CCN1C(=O)NC(C)C` (centres unmarked) [Example 113, 6-Ethyl-N-isopropyl-4-(5-(4-(4-methylpiperazine-1-carbonyl)phenyl)-1H-pyrrolo[2,3-b]pyridin-3-yl)-3,6-dihydropyridine-1(2H)-carboxamide], the pIC50 was 7.34 against IKKε and 7.74 at TBK1.

`CC(C)NC(=O)N1CCC(c2c[nH]c3ncc(-c4ccc(CN5CCOCC5)s4)cc23)=CC1(C)C` [Example 114, N-isopropyl-2,2-dimethyl-4-(5-(5-(morpholinomethyl)thiophen-2-yl)-1H-pyrrolo[2,3-b]pyridin-3-yl)-5,6-dihydropyridine-1(2H)-carboxamide]: the pIC50 was 8.10 at IKKε and 8.23 against TBK1.

With `CC(C)NC(=O)N1C(C)C=C(c2c[nH]c3ncc(-c4ccc(CN5CCOCC5)s4)cc23)CC1C` (centres unmarked) [Example 115, N-isopropyl-2,6-dimethyl-4-(5-(5-(morpholinomethyl)thiophen-2-yl)-1H-pyrrolo[2,3-b]pyridin-3-yl)-3,6-dihydropyridine-1(2H)-carboxamide], the values for the pIC50 on IKKε and on TBK1 were 6.37 and 6.44, respectively.

For `CC1C=C(c2c[nH]c3ncc(-c4ccc(CN5CCOCC5)s4)cc23)CC(C)N1C(=O)NC1CCCC1` (centres unmarked) [Example 116, N-cyclopentyl-2,6-dimethyl-4-(5-(5-(morpholinomethyl)thiophen-2-yl)-1H-pyrrolo[2,3-b]pyridin-3-yl)-3,6-dihydropyridine-1(2H)-carboxamide], the pIC50 was 5.82 at IKKε and 5.89 at TBK1.

`CC(C)NC(=O)N1C2C=C(c3c[nH]c4ncc(-c5ccc(CN6CCOCC6)s5)cc34)CC1CC2` (centres unmarked) [Example 117, N-isopropyl-3-(5-(5-(morpholinomethyl)thiophen-2-yl)-1H-pyrrolo[2,3-b]pyridin-3-yl)-8-azabicyclo[3.2.1]oct-3-ene-8-carboxamide]: the pIC50 against IKKε is 5.32; at TBK1, 5.57.
